Patent US12479827B2, “Heteroaromatic carboxamide derivatives as plasma kallikrein inhibitors” (Boehringer Ingelheim International GmbH, priority 2020, dated 2025)

Key:
Type in all cases: biochemical
human TK1 = molecular target: T1, human TK1 (Homo sapiens, UniProt P06870); test: Inhibition of TK1 (Ki); conditions: activated human TK1, substrate H-Pro-Phe-Arg-AMC, 24° C.
T1 construct: purchased R&D Systems
Procedure: The ability of compounds of formula (I) to inhibit plasma kallikrein (PKK), Factor XIIa (FXIIa), Factor XIa (FXIa), Factor Xa (FXa), Factor IIa (alpha-thrombin; FIIa), plasmin, trypsin, tissue kallikrein 1 (TK1), Factor VIIa (FVIIa), or FVIIa complexed with Tissue Factor, phospholipids and CaCl2 (FVIIa/TF/PL/CaCl2) is determined using the following biochemical assays in assay buffer (100 mM Tris, 150 mM NaCL, adjusted to a pH of 7.8 with HCl, and containing 0.1% (w/v) BSA and 0.05% (v/v) Tween20) in the presence of 1% (v/v) DMSO:
Prior to the assay, human TK1 (R&D Systems) is activated by incubation with human trypsin (Calbiochem) in a 1:10,000 ratio for 15 min at 37° C. For assaying TK1 inhibitory activity, activated TK1 (31.25 nM or 1 U/mL) is incubated at 24° C. with 0.1 mM fluorogenic substrate H-Pro-Phe-Arg-AMC (11295 from Bachem) and various concentrations of the test compound in assay buffer. Measurements are performed in a kinetic interval every 2nd minute for 16 min using a Spectramax M5 (Molecular Devices) with the following settings of the wavelength excitation of 350 nm and wavelength emission of 450 nm.
The pIC50 values are then fitted using a four-parametric fitting procedure using GraphPad Prism (version 6; GraphPad Software, Inc.). Respective Ki values are obtained by correction of the IC50 values for the respective KM value of the used substrate (see Table A for the obtained KM values of the used substrates) using the following formula:
[formula] Where the IC50 is in molar and the KM value in mM.

Human PKK = molecular target: T2, Human PKK (Homo sapiens, UniProt P03952); test: Inhibition of PKK using an endpoint assay (human PKK); conditions: fluorogenic substrate H-Pro-Phe-Arg-AMC, 1 h room temperature, method names human or rat PKK, table does not say which
T2 construct: purchased Enzyme Research Laboratories
T2 sequence (P03952 20-390 limits assumed): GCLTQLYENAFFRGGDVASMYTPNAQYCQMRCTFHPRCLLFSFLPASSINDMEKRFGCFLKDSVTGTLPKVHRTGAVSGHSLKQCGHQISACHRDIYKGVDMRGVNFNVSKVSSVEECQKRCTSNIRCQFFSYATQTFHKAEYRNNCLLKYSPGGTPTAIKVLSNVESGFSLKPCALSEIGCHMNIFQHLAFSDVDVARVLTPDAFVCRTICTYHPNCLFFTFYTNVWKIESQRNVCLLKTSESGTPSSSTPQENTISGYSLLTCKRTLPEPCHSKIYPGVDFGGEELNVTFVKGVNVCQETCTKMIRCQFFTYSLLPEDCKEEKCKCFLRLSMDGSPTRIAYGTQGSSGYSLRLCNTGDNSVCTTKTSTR
T2 sequence (P03952 391-638 limits assumed): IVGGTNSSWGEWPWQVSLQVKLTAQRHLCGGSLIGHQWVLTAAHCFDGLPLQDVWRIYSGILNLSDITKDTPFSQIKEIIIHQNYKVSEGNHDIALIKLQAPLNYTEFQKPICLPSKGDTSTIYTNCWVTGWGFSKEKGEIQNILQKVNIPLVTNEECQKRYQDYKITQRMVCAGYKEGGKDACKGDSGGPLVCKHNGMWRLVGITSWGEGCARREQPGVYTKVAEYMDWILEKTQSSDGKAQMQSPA
Method in brief: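 Endpoint fluorescence (ex 355 nm, em 460 nm) after stopping with 1 μM final PPACK II. Buffer: Tris 100 mM pH 7.8, NaCl 150 mM, BSA 0.1%, Tween20 0.05%, with 1% DMSO present; enzyme is human plasma kallikrein.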

[1] = molecular target: T3, PKK in kaolin activated human platelet poor plasma (Homo sapiens, UniProt P03952); test: Inhibition of PKK in kaolin activated human PPP; conditions: 25-750 μg/mL kaolin, global fit, text b200 calls the values IC90;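 note: readout is the rate of fluorogenic substrate cleavage in rfu per min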
T3 construct: Platelet poor plasma (PPP) obtained from human wholeblood; from tissue
T3 sequence (P03952 391-638 limits assumed): as above
T3 sequence (P03952 20-390 limits assumed): as the sequence (P03952 20-390 limits assumed) above
Procedure: Platelet poor plasma (PPP) obtained from human wholeblood, anticoagulated with Na-Citrate, is incubated with various concentrations of the test compound together with either 25, 75, 250, or 750 μg/mL kaolin in assay buffer for 20 min at 37° C. such that for each kaolin dose used a concentration response is obtained for the test compound.

T1 sequence (P06870 25-262): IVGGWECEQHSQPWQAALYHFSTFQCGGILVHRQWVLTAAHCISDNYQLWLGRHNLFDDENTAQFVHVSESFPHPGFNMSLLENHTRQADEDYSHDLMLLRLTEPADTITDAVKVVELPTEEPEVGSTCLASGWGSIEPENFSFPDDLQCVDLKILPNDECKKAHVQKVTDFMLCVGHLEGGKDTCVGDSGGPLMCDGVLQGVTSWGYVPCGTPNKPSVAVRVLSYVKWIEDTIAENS

SMILES | Ki (human TK1) | IC50 (Human PKK) | IC50 [1]
Cc1nc(N2CC3CC3C2)ccc1Cn1cc(C(=O)N[C@@H]2CCc3c2ncn3C)c(C(F)(F)F)n1 (stereo partly drawn) [Example 119, 1-[(6-{3-Azabicyclo[3.1.0]hexan-3-yl}-2-methylpyridin-3-yl)methyl]-N-[(4R)-1-methyl-1H,4H,5H,6H-cyclopenta[d]imidazol-4-yl]-3-(trifluoromethyl)-1H-pyrazole-4-carboxamide] | 1060 nM | 1.2 nM | 1460 nM
Cn1cnc2c1CC[C@H]2NC(=O)c1cn(Cc2cnc(N3CC4CC4C3)cc2Cl)cn1 (stereo partly drawn) [Example 120, 1-[(6-{3-Azabicyclo[3.1.0]hexan-3-yl}-4-chloropyridin-3-yl)methyl]-N-[(4R)-1-methyl-1H,4H,5H,6H-cyclopenta[d]imidazol-4-yl]-1H-imidazole-4-carboxamide] | > 10000 nM | 2.4 nM | 934 nM
Cn1cnc2c1CC[C@H]2NC(=O)c1cn(Cc2cnc(N3CC4CC4C3)cc2C(F)(F)F)cn1 (stereo partly drawn) [Example 121, 1-[(6-{3-Azabicyclo[3.1.0]hexan-3-yl}-4-(trifluoromethyl)pyridin-3-yl)methyl]-N-[(4R)-1-methyl-1H,4H,5H,6H-cyclopenta[d]imidazol-4-yl]-1H-imidazole-4-carboxamide] | > 10000 nM | 1.6 nM | 514 nM
Cn1cnc2c1CC[C@H]2NC(=O)c1cn(Cc2ccc(N3CC4CC4C3)nc2Cl)cn1 (stereo partly drawn) [Example 122, 1-[(6-{3-Azabicyclo[3.1.0]hexan-3-yl}-2-chloropyridin-3-yl)methyl]-N-[(4R)-1-methyl-1H,4H,5H,6H-cyclopenta[d]imidazol-4-yl]-1H-imidazole-4-carboxamide] | > 10000 nM | 1.5 nM | 492 nM
COCc1nn(Cc2ccc(N3CC4CC4C3)nc2C)cc1C(=O)N[C@@H]1CCc2c1ncn2C (stereo partly drawn) [Example 123, 1-[(6-{3-Azabicyclo[3.1.0]hexan-3-yl}-2-methylpyridin-3-yl)methyl]-3-(methoxymethyl)-N-[(4R)-1-methyl-1H,4H,5H,6H-cyclopenta-[d]imidazol-4-yl]-1H-pyrazole-4-carboxamide] | > 10000 nM | 0.9 nM | 1320 nM
Cc1nc(N2CC3CC3C2)c(C#N)cc1Cn1cnc(C(=O)N[C@@H]2CCc3c2ncn3C)c1 (stereo partly drawn) [Example 124, 1-[(6-{3-Azabicyclo[3.1.0]hexan-3-yl}-5-cyano-2-methylpyridin-3-yl)methyl]-N-[(4R)-1-methyl-1H,4H,5H,6H-cyclopenta[d]imidazol-4-yl]-1H-imidazole-4-carboxamide] | > 10000 nM | 2.4 nM | 823 nM
Cc1nc(N2CC3CC3C2)ccc1Cn1cc(C(=O)N[C@@H]2CCc3c2ncn3C)c(C(C)(C)O)n1 (stereo partly drawn) [Example 125, 1-[(6-{3-Azabicyclo[3.1.0]hexan-3-yl}-2-methylpyridin-3-yl)methyl]-3-(2-hydroxypropan-2-yl)-N-[(4R)-1-methyl-1H,4H,5H,6H-cyclopenta-[d]imidazol-4-yl]-1H-pyrazole-4-carboxamide] | > 10000 nM | 1.1 nM | 2740 nM
COCc1nn(Cc2ccc(N3CC4C(C3)C4(F)F)nc2C)cc1C(=O)N[C@@H]1CCc2c1ncn2C (stereo partly drawn) [Example 126, 1-[(6-{6,6-Difluoro-3-azabicyclo[3.1.0]hexan-3-yl}-2-methylpyridin-3-yl)methyl]-3-(methoxymethyl)-N-[(4R)-1-methyl-1H,4H,5H,6H-cyclopenta[d]imidazol-4-yl]-1H-pyrazole-4-carboxamide] | > 10000 nM | 0.6 nM | 681 nM
Cn1cnc2c1CC[C@H]2NC(=O)c1cnn(Cc2ccc(N3CC4CC4C3)nc2Cl)c1 (stereo partly drawn) [Example 127, 1-[(6-{3-Azabicyclo[3.1.0]hexan-3-yl}-2-chloropyridin-3-yl)methyl]-N-[(4R)-1-methyl-1H,4H,5H,6H-cyclopenta[d]imidazol-4-yl]-1H-pyrazole-4-carboxamide] | > 10000 nM | 1.2 nM | 1680 nM
